Like-named read-outs stand apart in the source and are kept apart here.
Assays:
[1] = target: T1, MAO-A (Sus scrofa, UniProt Q6Q2J0); experiment: MAO-A activity, radiolabeled [3H]serotonin substrate, pig brain mitochondria; type: biochemical
T1 construct: from tissue; host or cells: pig brain cortex mitochondria
T1 sequence (Q6Q2J0 1-527): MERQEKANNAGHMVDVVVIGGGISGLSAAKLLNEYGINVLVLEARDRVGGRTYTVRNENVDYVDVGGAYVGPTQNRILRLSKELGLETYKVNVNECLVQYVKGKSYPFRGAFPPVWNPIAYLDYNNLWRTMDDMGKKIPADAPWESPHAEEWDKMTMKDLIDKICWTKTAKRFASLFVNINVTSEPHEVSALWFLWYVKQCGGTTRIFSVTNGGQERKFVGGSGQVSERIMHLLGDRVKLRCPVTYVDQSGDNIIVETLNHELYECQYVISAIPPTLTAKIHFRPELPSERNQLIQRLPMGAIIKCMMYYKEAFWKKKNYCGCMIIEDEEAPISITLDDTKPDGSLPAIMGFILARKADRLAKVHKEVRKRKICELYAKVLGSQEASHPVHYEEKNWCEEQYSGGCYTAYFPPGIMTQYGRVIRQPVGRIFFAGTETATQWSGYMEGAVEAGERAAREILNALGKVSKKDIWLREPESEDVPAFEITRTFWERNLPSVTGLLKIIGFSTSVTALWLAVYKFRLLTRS
Description: (§1) KH buffer was used to preincubate mitochondria (final concentration of 800 µg/mL) with the tested drugs (concentration range of 0.1–300 µmol/L). MAO enzymatic activity was measured using radiolabeled substrates ([^3H]serotonin for MAO-A and [^14C]PEA for MAO-B). The reaction was terminated with hydrochloric acid, the organic phase was separated, and the radioactivity was determined by liquid scintillation counting (LS 6000IC, Beckman Instruments, Inc., Fullerton, CA, USA).
(§2) Four-parametric logistic regression was used to analyze inhibition of respiratory rate and MAO activity to determine half-maximal inhibitory concentration (IC50), residual activity, and Hill slope. Prism software from GraphPad (San Diego, CA, USA) was used for this analysis.

[2] = target: T2, MAO-B (Sus scrofa, UniProt Q6PLK3); experiment: MAO-B activity, radiolabeled [14C]PEA substrate, pig brain mitochondria; type: biochemical; conditions: for Hill Slope, MAO-B / IC50 / Residual Activity, MAO-B: mean ± SEM, four measurements
T2 construct: from tissue; host or cells: pig brain cortex mitochondria
T2 sequence (Q6PLK3 1-520): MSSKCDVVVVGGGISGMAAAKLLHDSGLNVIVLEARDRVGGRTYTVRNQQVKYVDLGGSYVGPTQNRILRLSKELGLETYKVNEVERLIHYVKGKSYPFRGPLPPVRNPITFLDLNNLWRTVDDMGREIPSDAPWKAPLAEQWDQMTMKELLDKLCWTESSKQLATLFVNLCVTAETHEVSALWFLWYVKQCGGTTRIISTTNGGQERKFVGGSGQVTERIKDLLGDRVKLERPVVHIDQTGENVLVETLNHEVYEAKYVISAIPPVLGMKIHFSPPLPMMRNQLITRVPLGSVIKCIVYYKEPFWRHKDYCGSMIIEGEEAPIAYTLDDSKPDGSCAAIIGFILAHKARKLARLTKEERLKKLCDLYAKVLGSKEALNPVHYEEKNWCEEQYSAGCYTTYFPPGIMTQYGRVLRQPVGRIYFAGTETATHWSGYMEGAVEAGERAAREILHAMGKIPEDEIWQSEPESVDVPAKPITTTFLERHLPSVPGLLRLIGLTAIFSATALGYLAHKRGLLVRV
Description: as §1, §2

[3] = target: T3, citrate synthase (CS) (Sus scrofa, UniProt P00889); experiment: Activity of citrate synthase in pig brain mitochondria; type: biochemical; conditions: mean ± SD, N = 3
T3 construct: used to determinate mitochondrial enzymes activities (ETC complexes, CS, malate dehydrogenase, and MAO); from tissue; host or cells: pig brain cortex mitochondria (frozen, ultrasonicated)
T3 sequence (P00889 28-464): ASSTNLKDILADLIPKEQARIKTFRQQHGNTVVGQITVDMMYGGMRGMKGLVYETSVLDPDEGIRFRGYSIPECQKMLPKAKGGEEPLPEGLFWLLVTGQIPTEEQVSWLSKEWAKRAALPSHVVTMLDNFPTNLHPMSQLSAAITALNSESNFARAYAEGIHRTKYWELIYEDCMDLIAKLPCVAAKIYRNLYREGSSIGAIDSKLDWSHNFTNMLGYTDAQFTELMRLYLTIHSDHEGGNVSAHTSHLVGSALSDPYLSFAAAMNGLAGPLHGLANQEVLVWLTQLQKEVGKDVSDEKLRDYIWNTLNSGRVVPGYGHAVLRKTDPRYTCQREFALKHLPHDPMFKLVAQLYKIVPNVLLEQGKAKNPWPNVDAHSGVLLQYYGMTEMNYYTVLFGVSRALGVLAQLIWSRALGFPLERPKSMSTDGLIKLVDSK
Description: Ultrasonicated mitochondria were incubated with the tested drugs for 30 min at 30 °C, with a corresponding drug-free control for every measurement. The activities of mitochondrial enzymes were determined as the absorbance measured with a GENESYS 180 UV-Vis spectrophotometer (Thermo Fisher Scientific, Waltham, MA, USA). […] […] […] An ATP standard curve was constructed.

[4] = tested on: complex II-linked respiration in isolated mitochondria; experiment: Complex II-linked respiration, high-resolution respirometry in isolated mitochondria; type: biochemical, pig
Description: (§3) The mitochondrial fraction was isolated and purified from the pig brain cortex. For high-resolution respirometry and ATP assays, freshly prepared mitochondria were kept on ice. Part of the mitochondria was frozen, stored at −70 °C, and used to determinate mitochondrial enzymes activities (ETC complexes, CS, malate dehydrogenase, and MAO).
The high-resolution Oxygraph-2k (Oroboros Instruments Corp, Innsbruck, Austria) was used to measure mitochondrial oxygen consumption rate. […] The final protein concentration was 0.05–0.14 mg/mL.
(§4) Respiration rate (oxygen flux) was quantified as the number of pmol of oxygen consumed per second per mg of a protein.
as §2

[5] = target: T4, malate dehydrogenase (MDH) (Sus scrofa, UniProt P00346); experiment: Activity of malate dehydrogenase in pig brain mitochondria; type: biochemical; conditions: mean ± SD, N = 3
T4 construct: used to determinate mitochondrial enzymes activities (ETC complexes, CS, malate dehydrogenase, and MAO); from tissue; host or cells: pig brain cortex mitochondria (frozen, ultrasonicated)
T4 sequence (P00346 25-338): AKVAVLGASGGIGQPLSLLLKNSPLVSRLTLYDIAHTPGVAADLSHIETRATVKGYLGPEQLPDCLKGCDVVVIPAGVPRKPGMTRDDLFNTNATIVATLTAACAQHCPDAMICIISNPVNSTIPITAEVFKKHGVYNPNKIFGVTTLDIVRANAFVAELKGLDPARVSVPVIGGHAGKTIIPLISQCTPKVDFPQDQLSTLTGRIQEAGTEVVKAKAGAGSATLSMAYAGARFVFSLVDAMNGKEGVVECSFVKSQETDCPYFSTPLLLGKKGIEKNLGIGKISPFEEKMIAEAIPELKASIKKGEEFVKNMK
Description: Ultrasonicated mitochondria were incubated with the tested drugs for 30 min at 30 °C, with a corresponding drug-free control for every measurement. The activities of mitochondrial enzymes were determined as the absorbance measured with a GENESYS 180 UV-Vis spectrophotometer (Thermo Fisher Scientific, Waltham, MA, USA). The conversion of oxaloacetate to malate was used to measure malate dehydrogenase (MDH) activity. The reaction was started by adding oxaloacetate and nicotinamide adenine dinucleotide (NADH) (measured at 340 nm for 3 min). […] […] An ATP standard curve was constructed.

[6] = tested on: complex I-linked respiration in isolated mitochondria; experiment: Complex I-linked respiration, high-resolution respirometry in isolated mitochondria; type: biochemical, pig; conditions: for IC50: four-parameter logistic; for IC50 / Residual Activity, complex I-linked respiration: mean ± SEM, four measurements
Description: as §3
The high-resolution Oxygraph-2k (Oroboros Instruments Corp, Innsbruck, Austria) was used to measure mitochondrial oxygen consumption rate.
as §4, §2

Row | Structure (SMILES) | Inhibition (partial/full), MAO-A [1] | IC50 ([1]; mean ± SEM, four measurements) [µM] | Residual Activity, MAO-A ([1]; mean ± SEM, four measurements) [rel.u.] | Inhibition (partial/full), MAO-B [2] | Hill Slope, MAO-B [2] | IC50 [2] [µM] | Residual Activity, MAO-B [2] [rel.u.] | CS (% of control) ([3]; 10 μM) | CS (% of control) ([3]; 100 μM) | MDH (% of control) ([5]; 10 μM) | MDH (% of control) ([5]; 100 μM) | Inhibition (partial/full), complex I-linked respiration [6] | IC50 [6] [µM] | Residual Activity, complex I-linked respiration [6] [rel.u.] | also measured
1 | CC(NC(C)(C)C)C(=O)c1cccc(Cl)c1 (stereo not shown) [bupropion] | partial | 20.1 ± 5.68 | 0.235 ± 0.050 | partial | 1.68 ± 0.20 | 31.5 ± 3.32 | 0.410 ± 0.018 | 105.6 ± 1.29 % of control | 99.5 ± 0.93 % of control | 99.2 ± 2.90 % of control | 99.6 ± 2.72 % of control | – | – | – | Inhibition (partial/full), MAO-A ([1]; listed as BUP): partial inhibitors; Inhibition (partial/full), MAO-B ([2]; listed as BUP): partial MAO-B inhibitors; Inhibition (partial/full), complex II-linked respiration [4]: partial; IC50 ([4]; four-parameter logistic, mean ± SEM, four measurements): 10.6 ± 4.49 µM; Inhibition (partial/full), complex II-linked respiration ([4]; listed as BUP): weak partial inhibitor; Residual Activity, complex II-linked respiration ([4]; mean ± SEM, four measurements): 0.690 ± 0.045 rel.u.
2 | CN(C)CCC[C@@]1(c2ccc(F)cc2)OCc2cc(C#N)ccc21 [escitalopram] | full | 8.78 ± 2.27 | – | full | – | 15.2 ± 2.23 | – | – | – | – | – | partial | 0.14 ± 0.08 | 0.774 ± 0.015 | Inhibition (partial/full), MAO-A ([1]; listed as ESC): full inhibitors; Inhibition (partial/full), MAO-B ([2]; listed as ESC): full inhibitors
3 | Fc1ccc([C@@H]2CCNC[C@H]2COc2ccc3c(c2)OCO3)cc1 [paroxetine] | full | 0.47 ± 0.06 | 0.007 ± 0.017 | full | 1.06 ± 0.10 | 2.19 ± 0.21 | 0.015 ± 0.021 | 105.8 ± 1.69 % of control | 98.4 ± 0.85 % of control | 100.1 ± 2.22 % of control | 97.9 ± 1.71 % of control | partial | 26.7 ± 6.73 | 0.672 ± 0.029 | Inhibition (partial/full), MAO-A ([1]; listed as PAR): full inhibitors; Hill Slope, MAO-A ([1]; mean ± SEM, four measurements): 1.65 ± 0.22; Inhibition (partial/full), MAO-B ([2]; listed as PAR): full inhibitors

From publication PMC10294837 (Antioxidants, 2023)
